Measurements taken from the supplement of paper PMC8671470.

What was measured:
Details in all cases: 72 h
[1] = system: HEL; experiment: cell viability (% survival relative to DMSO control, bortezomib = 0%); higher = less cytotoxic
Procedure, shortened: (§1)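 After 72 h at 37 °C with 5% CO2, cell viability in 384-well plates was measured by CellTiter-Glo luminescence. The plates held compounds pre-printed at 1, 10, 100, 1000 or 10000 nM in duplicate, and cells from 10 AML and 5 CML lines seeded at densities titrated to linear growth. Percent survival is the duplicate mean, normalised to vehicle as 100% and a 10 µM positive control as 0%.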

[2] = system: K-562; experiment: as above
Procedure, shortened: as §1

[3] = system: KG-1; experiment: as above
Procedure, shortened: as §1

[4] = system: Mono-Mac-6; experiment: as above
Procedure, shortened: as §1

[5] = system: MOLM-13; experiment: as above
Procedure, shortened: as §1

[6] = system: KCL-22; experiment: as above
Procedure, shortened: as §1

[7] = system: KU-812; experiment: as above
Procedure, shortened: as §1

[8] = system: ML-2; experiment: as above
Procedure, shortened: as §1

[9] = system: THP-1; experiment: as above
Procedure, shortened: as §1

[10] = system: SHI-1; experiment: as above
Procedure, shortened: as §1

[11] = system: BV-173; experiment: as above
Procedure, shortened: as §1

[12] = system: HL-60; experiment: as above
Procedure, shortened: as §1

[13] = system: HEL
Procedure, shortened: (§2)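 For the IC50, dose–response curves were fitted with a log-logistic model. The data came from fifteen myeloid leukaemia cell lines grown in RPMI 1640 at densities in the linear growth range and incubated in 384-well plates for 72 h at 37 °C under 5% CO2. Doses were five tenfold steps from 1 to 10,000 nM in duplicate, and luminescent ATP viability was normalised to vehicle and to a positive control at 10 µM before four-parameter fitting.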

[14] = system: K-562
Procedure, shortened: as §2

[15] = system: KG-1
Procedure, shortened: as §2

[16] = system: Mono-Mac-6
Procedure, shortened: as §2

[17] = system: MOLM-13
Procedure, shortened: as §2

[18] = system: KCL-22
Procedure, shortened: as §2

[19] = system: KU-812
Procedure, shortened: as §2

[20] = system: NOMO-1
Procedure, shortened: as §2

[21] = system: ML-2
Procedure, shortened: as §2

[22] = system: THP-1
Procedure, shortened: as §2

[23] = system: SHI-1
Procedure, shortened: as §2

[24] = system: BV-173
Procedure, shortened: as §2

[25] = system: LAMA-84
Procedure, shortened: as §2

[26] = system: MV4-11
Procedure, shortened: as §2

[27] = system: HL-60
Procedure, shortened: as §2

[28] = system: HL-60; experiment: cell viability (% survival relative to DMSO control); higher = less cytotoxic
Procedure, shortened: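 HL-60 cells in RPMI 1640 with 10% FBS were rescreened against the full library on 384-well plates at five tenfold concentrations, 1–10,000 nM, in duplicate. Each screen was run with DMSO or 100 nM of one of three metabolic inhibitors, for 72 h at 37 °C, 5% CO2. Viability was read by CellTiter-Glo and normalised to DMSO and 10 μM proteasome-inhibitor wells. Where given, area under the curve came from four-parameter log-logistic fits (drc, PharmacoGx).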

CN(CCOc1ccc(Cc2sc(O)nc2O)cc1)c1ccccn1 [Rosiglitazone]
cell viability [%]
Details	1 nM	10 nM	100 nM	1000 nM	10000 nM
[1]	110	110	113	110	91.9
[2]	96.6	109	98.5	98.7	85.4
[3]	91.4	110	94.3	101	91.2
[4]	95.9	92.6	54.5	25.2	24.8
[5]	107	115	118	130	122
[6]	96.4	113	110	94.2	102
[7]	98.9	111	92.5	95.4	90.3
[8]	106	108	95.6	120	115
[9]	101	101	88.6	90.6	93.5
[10]	102	123	111	116	103
[11]	96.7	101	81	97.7	101
[12]	97.8	111	107	127	168

Details	IC50 (cell viability) [µM]
[13]	> 10
[14]	> 10
[15]	> 10
[16]	0.0852
[17]	> 10
[18]	> 10
[19]	> 10
[20]	> 10
[21]	> 10
[22]	> 10
[23]	> 10
[24]	> 10
[25]	> 10
[26]	> 10
[27]	> 10

cell viability [%], [28]
Details	0.001 µM	0.01 µM	0.1 µM	1 µM	10 µM
co-treatment: AZD3965 100 nM	104.4	105	100	105	102
co-treatment: DMSO vehicle	102.4	102	102	102.5	99.9
co-treatment: GSK2194069 100 nM	97.7	105	98.5	105	92.5
co-treatment: pictilisib 100 nM	98.9	102	96.3	98.3	89.5

CC(C)(C)c1ccc(S(=O)(=O)NCc2ccc(C(=O)Nc3cccnc3)cc2)cc1 [STF-31]
cell viability [%]
Details	1 nM	10 nM	100 nM	1000 nM	10000 nM
[1]	107	119	35.3	3.71	2.64
[2]	109	103	82.2	11.9	3.63
[3]	147	137	72.6	19.7	18.4
[4]	107	114	105	36.9	31
[5]	111	154	96.6	109	0.127
[6]	85	80	98.4	9.33	1.6
[7]	91.8	107	58.6	14.2	7.98
[8]	95.8	101	83.5	3.23	0.455
[9]	101	95.9	101	103	110
[10]	89.7	118	108	101	57.4
[11]	96.3	111	3.51	0.776	0.807
[12]	102	169	65.7	-0.0172	0.631

Details	IC50 (cell viability) [µM]
[13]	0.0738
[14]	0.242
[15]	0.144
[16]	0.548
[17]	3.57
[18]	0.437
[19]	0.109
[20]	0.074
[21]	0.228
[22]	> 10
[23]	> 10
[24]	0.0383
[25]	0.169
[26]	0.0451
[27]	0.143

cell viability [%], [28]
Details	0.001 µM	0.01 µM	0.1 µM	1 µM	10 µM
co-treatment: AZD3965 100 nM	104	95.82	94.3	20.9	2.06
co-treatment: DMSO vehicle	104	94.1	108	10.1	4.63
co-treatment: GSK2194069 100 nM	101	98.62	99.7	6.72	2.51
co-treatment: pictilisib 100 nM	100	93.2	105	18	3.08

N[C@@H](CC(=O)N1CCn2c(nnc2C(F)(F)F)C1)Cc1cc(F)c(F)cc1F [Sitagliptin]
cell viability [%]
Details	1 nM	10 nM	100 nM	1000 nM	10000 nM
[1]	90.7	95.3	111	95.4	103
[2]	93.8	96.9	103	99.7	113
[3]	90.9	104	108	95.2	103
[4]	92.5	83.8	96.1	85.6	100
[5]	95.5	110	92.5	84.3	95.4
[6]	94	114	106	94.4	92.8
[7]	94.6	98.9	91.9	95.5	102
[8]	90	102	99.3	97.4	97.9
[9]	97.8	99.7	106	99	97.6
[10]	95.2	104	105	96.8	97.4
[11]	89.5	103	99.9	93.4	102
[12]	101	95.5	97.1	91.3	95.2

Details	IC50 (cell viability) [µM]
[13]	> 10
[14]	> 10
[15]	> 10
[16]	> 10
[17]	> 10
[18]	> 10
[19]	> 10
[20]	> 10
[21]	> 10
[22]	> 10
[23]	> 10
[24]	> 10
[25]	> 10
[26]	> 10
[27]	> 10

cell viability [%], [28]
Details	0.001 µM	0.01 µM	0.1 µM	1 µM	10 µM
co-treatment: AZD3965 100 nM	103	108	103	103	109
co-treatment: DMSO vehicle	97.61	102	100	101	101
co-treatment: GSK2194069 100 nM	97.9	104	99.4	107	97.9
co-treatment: pictilisib 100 nM	82.9	104	99.5	114	94.2

CO[C@H]1C[C@@H]2CC[C@@H](C)[C@@](O)(O2)C(=O)C(=O)N2CCCC[C@H]2C(=O)O[C@H]([C@H](C)C[C@@H]2CC[C@@H](OC(=O)C(C)(CO)CO)[C@H](OC)C2)CC(=O)[C@H](C)/C=C(\C)[C@@H](O)[C@@H](OC)C(=O)[C@H](C)C[C@H](C)/C=C/C=C/C=C/1C [Temsirolimus]
cell viability [%]
Details	1 nM	10 nM	100 nM	1000 nM	10000 nM
[1]	101	85.3	77.3	65.2	46.3
[2]	94.8	58.4	47.2	44.7	33.5
[3]	80.8	47.2	46.5	39.2	33.6
[4]	99.2	49.4	48	35.1	38
[5]	78.5	41.6	40.9	29.8	30.6
[6]	95.8	58.5	47.8	32.5	23.6
[7]	71.8	42.9	44.7	38.8	36.1
[8]	84.3	71.5	70.4	60.3	38.2
[9]	91.6	75	76.8	57.3	55.6
[10]	93.3	71.2	80.4	58.8	59.3
[11]	96.5	54.8	57.6	45.7	39.5
[12]	101	96.8	90	73.4	73

Details	IC50 (cell viability) [µM]
[13]	1.15
[14]	0.00535
[15]	0.00205
[16]	0.00487
[17]	0.00198
[18]	0.0133
[19]	0.00111
[20]	4.42
[21]	2.59
[22]	0.0539
[23]	0.0283
[24]	0.0039
[25]	0.0208
[26]	0.0611
[27]	0.148

cell viability [%], [28]
Details	0.001 µM	0.01 µM	0.1 µM	1 µM	10 µM
co-treatment: AZD3965 100 nM	99.9	97.186	101	92.3	86.7
co-treatment: DMSO vehicle	101	96.3	97.65	90.3	100
co-treatment: GSK2194069 100 nM	92.3	87.52	103.1	83.261	96.5
co-treatment: pictilisib 100 nM	94.1	81	99.1	81.02	91.4
